In US20190209650A1, “METHOD TO IMPROVE THE EFFECTIVENESS OF ANTI-CANCER THERAPIES BY EXPOSING CANCER CELLS TO AN INFLAMMATORY STIMULUS PRIOR TO TREATMENT” (priority 2016, published 2019):

How the values were obtained:
[1] = system: SW620 colorectal cancer cell line; experiment: Flow cytometry of EpCAM positive cells and cancer stem cell (CD44+CD133-) subpopulation after incubation with cytokines; assay type: cell-based, human; conditions: for % Gated, R4 (CD44FITC, CD133 PE) / % Total, R4 (CD44FITC, CD133 PE): population R4 & R14 & R2 & R1; for % Gated, R5 (CD44FITC, CD133 PE) / % Total, R5 (CD44FITC, CD133 PE): population R5 & R14 & R2 & R1; for % Gated, R6 (CD44FITC, CD133 PE) / % Total, R6 (CD44FITC, CD133 PE): population R6 & R14 & R2 & R1; for % Gated, R7 Cancer Stem Cell (CSC) (CD44+CD133-) / % Total, R7 Cancer Stem Cell (CSC) (CD44+CD133-): population R7 & R14 & R2 & R1; for % Gated, R8 (CD44FITC, EpCAMefluor710) / % Total, R8 (CD44FITC, EpCAMefluor710): population R8 & R14 & R2 & R1; for % Gated, R9 EpCAM positive Cells (CD44FITC, EpCAMefluor710) / % Total, R9 EpCAM positive Cells (CD44FITC, EpCAMefluor710): population R9 & R14 & R2 & R1; for % Gated, R10 EpCAM positive Cells (CD44FITC, EpCAMefluor710) / % Total, R10 EpCAM positive Cells (CD44FITC, EpCAMefluor710): population R10 & R14 & R2 & R1; for % Gated, R11 (CD44FITC, EpCAMefluor710) / % Total, R11 (CD44FITC, EpCAMefluor710): population R11 & R14 & R2 & R1; for putative stem cell population (CD44+/CD133-): SW620; for percentage of cancer stem cells: human cancer cell line, single agent at 1000 pg/ml
Description: This number returned to near baseline 21% at 48 hours. […] This change was transient, occurring within 24 hours and rapidly returning to baseline.
The data from the scatter plots of FIGS. 1A-1H, 2A-2H, and 3A-3H are reproduced below in Tables 1-3.
Based on the above data of potentiating the effectiveness of chemotherapy by exposing cancer cells to specific cytokines such as HGF and or Il-6 within a time limited fashion, the mechanism behind this ability to sensitize cancer cells may not simply be triggering cellular proliferation. Specific cytokine exposures can transiently cause a cancer cell population to differentiate away from a more stem cell enriched, mesenchymal phenotype towards a more differentiated, epithelial cell population more sensitive to the effects of anti-cancer therapies (see Tables 1-3).
In particular, exposure to a control population of SW620 colorectal cancer cell line to HGF at a concentration of 10 ng per ml for 24 hours caused the control putative stem cell population (CD44+/CD133−) to drop from 33% at baseline (see Table 1, R7 region, CD 44 positive/CD133 negative) to 1% (see Table 2, R7, region CD 44 positive/CD133 negative). This drop was transient, as exposure to the same cell line for 48 hours of HGF at 10 ng per ml transitioned the phenotypic distribution back towards a stem cell enriched phenotype with 23% putative stem cells (see Table 3, R7 region, CD 44 positive/CD133 negative).

SW 620 cell lines = experiment: Cancer stem cells remaining after cytokine exposure and 24 hours exposure to CPT-11 (Irinotecan); assay type: cell-based, human; conditions: FIG. 4
Description: FIG. 4 depicts a table showing percentage of Cancer Stem Cells remaining after exposure to various cytokines and 24 hours exposure to CPT-11 (Irinotecan). The present inventor then performed experiments to determine if exposure to HGF would improve the effectiveness of chemotherapy treatment, based on a prediction that this stimulus, by fostering differentiation of the stem cell subpopulation, would render these cells more susceptible to chemotherapy. […] Furthermore, exposure to HGF alone for 24 hours at a concentration of 10 ng per ml followed by treatment with CPT-11 in SW 620 cell lines was able to kill cancer stem cells effectively as well, given that there were no remaining cancer stem cells after this sensitization (FIG. 4 0% CD44+/CD133−).

PANC1 = experiment: Cancer cell viability after 48 hours HGF only pretreatment followed by 72 hour combination treatment; assay type: cell-based, human; conditions: 48 hours HGF exposure followed by 72 hour combination treatment; FIG. 7
Description: FIG. 7 depicts tables showing cancer cell viability after 48 hours of HGF only pretreatment, followed by 72 hour combination treatment. HI1=HGF 0.5 ng/ml; H12=HGF 1 ng/ml; HI3=HGF 5 ng/ml. A) PANC1 48 hour HGF exposure followed by 72 hour combination treatment (COMBO=30 paclitaxel, 250 μg/mL oseltamivir phosphate, and 2.5 mM aspirin). B) PANC1 48 hour HGF exposure followed by 72 hour combination treatment (COMBO=50 μM paclitaxel, 250 μg/mL oseltamivir phosphate, and 2.5 mM aspirin).
(§1) In the following experiments various concentrations of hepatocyte growth factor (HGF) and Interleukin 6 (IL-6), used singly and together, were used to sensitize cancer cell lines to cytotoxic chemotherapy. In these experiments a combination anti-cancer treatment of paclitaxel with aspirin and oseltamivir phosphate (OP) were used. Cell lines treated with the combination treatment (COMBO) alone were compared with those treated with the combination treatment after exposure to cytokines.
In FIG. 7, exposing human pancreatic cancer cell lines (PANC-1) cells to HGF for 48 hours at various concentrations sensitized cancer cells to subsequent combination treatment. […] P-value in FIG. 7 was calculated based on comparison between Combination Treatment vs. Pretreatment Followed by Combination Treatment.

cancer cells = experiment: Cancer cell viability after 72 hours HGF only pretreatment followed by 72 hour combination treatment; assay type: cell-based; conditions: 72 hours HGF exposure followed by 72 hour combination treatment; FIG. 8
Description: FIG. 8 depicts a table showing cancer cell viability after 72 hours of HGF only pretreatment, followed by 72 hour combination treatment (COMBO=30 μM paclitaxel, 250 μs/mL oseltamivir phosphate, and 2.5 mM aspirin). HI1=HGF 0.5 ng/ml; HI2=HGF 1 ng/ml; HI3=HGF 5 ng/ml.
as §1
Thus, exposure to this particular cytokine, for longer than 48 hours can increase the likelihood that the cancer cell population is transitioning over to a more stem cell enriched phenotype, rendering the cells less sensitive to the effects of cytotoxic therapies. Other cytokines such as HGF, IL-6, PGE-2, MCP-1, MMP-9, TGF-beta, PDGF-BB, and PGF, the up-regulation of which is associated with stem cell enrichment should also be administered in this time limited manner to avoid a stem cell enriched phenotype that is more resistant to the chemotherapy treatment. […]

[2] = after exposure to HGF, then chemotherapy (CPT-11)

Substance: HGF: Hepatocyte Growth Factor, cytokine
- % Gated, R4 (CD44FITC, CD133 PE) ([1]; 0 hour incubation): 48.6%
- % Total, R4 (CD44FITC, CD133 PE) ([1]; 0 hour incubation): 46.6%
- % Gated, R5 (CD44FITC, CD133 PE) ([1]; 0 hour incubation): 3.61%
- % Total, R5 (CD44FITC, CD133 PE) ([1]; 0 hour incubation): 3.45%
- % Gated, R6 (CD44FITC, CD133 PE) ([1]; 0 hour incubation): 14.2%
- % Total, R6 (CD44FITC, CD133 PE) ([1]; 0 hour incubation): 13.6%
- % Gated, R7 Cancer Stem Cell (CSC) (CD44+CD133-) ([1]; 0 hour incubation): 33.8%
- % Total, R7 Cancer Stem Cell (CSC) (CD44+CD133-) ([1]; 0 hour incubation): 32.3%
- % Gated, R8 (CD44FITC, EpCAMefluor710) ([1]; 0 hour incubation): 5.28%
- % Total, R8 (CD44FITC, EpCAMefluor710) ([1]; 0 hour incubation): 5.06%
- % Gated, R9 EpCAM positive Cells (CD44FITC, EpCAMefluor710) ([1]; 0 hour incubation): 53.1%
- % Total, R9 EpCAM positive Cells (CD44FITC, EpCAMefluor710) ([1]; 0 hour incubation): 50.9%
- % Gated, R10 EpCAM positive Cells (CD44FITC, EpCAMefluor710) ([1]; 0 hour incubation): 39%
- % Total, R10 EpCAM positive Cells (CD44FITC, EpCAMefluor710) ([1]; 0 hour incubation): 37.4%
- % Gated, R11 (CD44FITC, EpCAMefluor710) ([1]; 0 hour incubation): 2.16%
- % Total, R11 (CD44FITC, EpCAMefluor710) ([1]; 0 hour incubation): 2.07%
- % Gated, R4 (CD44FITC, CD133 PE) ([1]; 24 h incubation): 98.6%
- % Total, R4 (CD44FITC, CD133 PE) ([1]; 24 h incubation): 84.7%
- % Gated, R5 (CD44FITC, CD133 PE) ([1]; 24 h incubation): 0%
- % Total, R5 (CD44FITC, CD133 PE) ([1]; 24 h incubation): 0%
- % Gated, R6 (CD44FITC, CD133 PE) ([1]; 24 h incubation): 0.07%
- % Total, R6 (CD44FITC, CD133 PE) ([1]; 24 h incubation): 0.06%
- % Gated, R7 Cancer Stem Cell (CSC) (CD44+CD133-) ([1]; 24 h incubation): 1.01%
- % Total, R7 Cancer Stem Cell (CSC) (CD44+CD133-) ([1]; 24 h incubation): 0.87%
- % Gated, R8 (CD44FITC, EpCAMefluor710) ([1]; 24 h incubation): 99.8%
- % Total, R8 (CD44FITC, EpCAMefluor710) ([1]; 24 h incubation): 85.7%
- % Gated, R9 EpCAM positive Cells (CD44FITC, EpCAMefluor710) ([1]; 24 h incubation): 0.02%
- % Total, R9 EpCAM positive Cells (CD44FITC, EpCAMefluor710) ([1]; 24 h incubation): 0.02%
- % Gated, R10 EpCAM positive Cells (CD44FITC, EpCAMefluor710) ([1]; 24 h incubation): 0.02%
- % Total, R10 EpCAM positive Cells (CD44FITC, EpCAMefluor710) ([1]; 24 h incubation): 0.02%
- % Gated, R11 (CD44FITC, EpCAMefluor710) ([1]; 24 h incubation): 0.2%
- % Total, R11 (CD44FITC, EpCAMefluor710) ([1]; 24 h incubation): 0.17%
- % Gated, R4 (CD44FITC, CD133 PE) ([1]; 48 h incubation): 38%
- % Total, R4 (CD44FITC, CD133 PE) ([1]; 48 h incubation): 34.2%
- % Gated, R5 (CD44FITC, CD133 PE) ([1]; 48 h incubation): 7.48%
- % Total, R5 (CD44FITC, CD133 PE) ([1]; 48 h incubation): 6.73%
- % Gated, R6 (CD44FITC, CD133 PE) ([1]; 48 h incubation): 31.3%
- % Total, R6 (CD44FITC, CD133 PE) ([1]; 48 h incubation): 28.2%
- % Gated, R7 Cancer Stem Cell (CSC) (CD44+CD133-) ([1]; 48 h incubation): 23.9%
- % Total, R7 Cancer Stem Cell (CSC) (CD44+CD133-) ([1]; 48 h incubation): 21.5%
- % Gated, R8 (CD44FITC, EpCAMefluor710) ([1]; 48 h incubation): 20%
- % Total, R8 (CD44FITC, EpCAMefluor710) ([1]; 48 h incubation): 18%
- % Gated, R9 EpCAM positive Cells (CD44FITC, EpCAMefluor710) ([1]; 48 h incubation): 34.7%
- % Total, R9 EpCAM positive Cells (CD44FITC, EpCAMefluor710) ([1]; 48 h incubation): 31.2%
- % Gated, R10 EpCAM positive Cells (CD44FITC, EpCAMefluor710) ([1]; 48 h incubation): 31.8%
- % Total, R10 EpCAM positive Cells (CD44FITC, EpCAMefluor710) ([1]; 48 h incubation): 28.7%
- % Gated, R11 (CD44FITC, EpCAMefluor710) ([1]; 48 h incubation): 14.4%
- % Total, R11 (CD44FITC, EpCAMefluor710) ([1]; 48 h incubation): 12.9%
- putative stem cell population (CD44+/CD133-) ([1]; 10 ng per ml for 24 hours (Table 2, R7 region)): 1%
- putative stem cell population (CD44+/CD133-) ([1]; 10 ng per ml for 48 hours (Table 3, R7 region)): 23%
- putative stem cell population (CD44+/CD133-) ([1]; at baseline (Table 1, R7 region)): 33%
- percentage of cancer stem cells ([1]; at 24 hours): less than one percent
- percentage of cancer stem cells ([1]; at 48 hours): 21%
- percentage of cancer stem cells ([1]; prior to exposure): approximately 30%
- remaining cancer stem cells CD44+/CD133- (SW 620 cell lines; HGF alone 24 hours at 10 ng per ml followed by CPT-11, SW 620): 0%
- cancer stem cells killed (SW 620 cell lines; [2]): 100%
- viable cancer stem cells remaining (SW 620 cell lines; [2]): no viable cancer stem cells remaining
- reduction in cell viability (PANC1): 87%
- sensitization of cancer cells to the combination treatment (cancer cells): made the combination treatment less effective
